In US6825230B2, “Spiro and dispiro 1,2,4-trixolane antimalarials” (Medicines for Malaria Venture MMV, priority 2002, dated 2004):

System: ANKA strain of P. berghei
Assay: Single dose STI in vivo screen in infected mice
Design: species or system Plasmodium berghei
Conditions: for Survival (days) 3 mg/kg SSV po / Activity (%) 3 mg/kg SSV po: single 3 mg/kg po in SSV; for Survival (days) 10 mg/kg SSV po: single 10 mg/kg po in SSV; for Survival (days) 10 mg/kg SSV po / Survival (days) 10 mg/kg po / Survival (days) 10 mg/kg sc: untreated 6-7 days; for Survival (days) 10 mg/kg po: single 10 mg/kg po in 3% ethanol and 7% Tween 80; for Activity (%) 10 mg/kg po: single 10 mg/kg po in 3% ethanol and 7% Tween 80 on day 1 post-infection; for Survival (days) 10 mg/kg sc: single 10 mg/kg sc in 3% ethanol and 7% Tween 80; for Activity (%) 10 mg/kg sc: single 10 mg/kg sc in 3% ethanol and 7% Tween 80 on day 1 post-infection
Method: In the single dose STI in vivo screen, Moro SPF or NMRI mice infected with the ANKA strain of P. berghei (groups of three mice) were treated on day one post-infection with trioxolanes dissolved or suspended in 3% ethanol and 7% Tween 80. […] SSV consists of 0.5% w/v CMC, 0.5% v/v benzyl alcohol, 0.4% v/v Tween 80, and 0.9% w/v sodium chloride in water. Antimalarial activity was measured by percent reduction in parasitemia on day three post-infection and survival times compared to an untreated control group. Survival to day 30 post-infection is considered to be a cure. […] Other factors influencing antimalarial activity include the stability of carbon radicals formed by β-scission subsequent to the initial electron transfer to the peroxide bond and the influence of steric effects remote from the peroxide bond on the interactions between carbon radicals and potential drug targets.
Moro NMRI male mice (Fu Albino specific pathogen free) weighing 18±2 g were infected intravenously (i.v.) with 2×10^7 P. berghei ANKA strain-infected erythrocytes from donor mice on day 0 of the experiment. From donor mice with circa 30% parasitemia, heparinized blood was taken and diluted in physiological saline to 10^8 parasitized erythrocytes per ml. An aliquot (0.2 ml) of this suspension was injected i.v. into experimental and control groups of mice. […] Throughout the experiments, mice were kept in groups of three or five animals in Makrolon type II cages in an air-conditioned animal room at 22 to 23° C.
They were administered per os (p.o.) in a total volume of 0.01 ml per gram of mouse. The activity of the compound was determined by a variety of methods outlined in subsequent sections. Survival time was also recorded, and survival to day 30 post-infection was considered to be a cure.

[1] = percent reduction in parasitemia on day 3
[2] = single 10 mg/kg po in standard suspending vehicle (SSV) on day 1 post-infection, percent reduction in parasitemia on day 3

SMILES | Survival (days) 3 mg/kg SSV po | Activity (%) 3 mg/kg SSV po [1] [%] | Survival (days) 10 mg/kg SSV po | Activity (%) 10 mg/kg SSV po [2] [%] | Survival (days) 10 mg/kg po [days] | Activity (%) 10 mg/kg po [1] [%] | Survival (days) 10 mg/kg sc [days] | Activity (%) 10 mg/kg sc [1] [%] | Activity (%) 10 mg/kg SSV po (po, 10 mg/kg)
Nc1nccnc1C(=O)NC[C@H]1CC[C@]2(CC1)OO[C@]1(O2)C2CC3CC(C2)CC1C3 [OZ330] | 7.2 days | 82 | 12.2 days | – | – | – | – | – | –
O=C(NC[C@H]1CC[C@]2(CC1)OO[C@]1(O2)C2CC3CC(C2)CC1C3)[C@@H]1CCCN1 [OZ337] | – | 97 | 8.6 days | – | – | – | – | – | –
c1cnc(OC[C@H]2CC[C@]3(CC2)OO[C@]2(O3)C3CC4CC(C3)CC2C4)nc1 [OZ325] | 6.2 days | 30 | 8.8 days | – | – | – | – | – | –
Cn1nnnc1S(=O)(=O)C[C@H]1CC[C@]2(CC1)OO[C@]1(O2)C2CC3CC(C2)CC1C3 [OZ332] | 6.0/6.0 days | 0 | 6.0/6.0 days | 8 | – | – | – | – | –
O=C(NC[C@H]1CC[C@]2(CC1)OOC1(O2)C2CC3CC(C2)CC1C3)c1ccc(O)nc1 (stereo partly drawn) [OZ282] | 7.2 days | 53 | 8.3 days | 98.5 | – | – | – | – | –
C[C@H](N)C(=O)NC[C@H]1CC[C@]2(CC1)OO[C@]1(O2)C2CC3CC(C2)CC1C3 [OZ335] | 10.0 days | 97 | 9.2 days | – | – | – | – | – | –
O=C(Nc1ccc(Cl)cc1)N1CCC2(CC1)OOC1(O2)C2CC3CC(C2)CC1C3 (stereo not drawn) [OZ192, Adamantane-2-spiro-3′-8′-[(4′-chlorophenylamino)carbonyl]-1′,2′,4′-trioxa-8′-azaspiro[4.5]decane] | – | – | 7.0 days | 45 | 6.0 | 38 | 13.7 | 99.98 | –
O=C(C[C@H]1CC[C@]2(CC1)OO[C@]1(O2)C2CC3CC(C2)CC1C3)N1CCN(c2ncccn2)CC1 [OZ314] | 6.6/6.6 days | 11 | 6.6/6.6 days | 13 | – | – | – | – | –
NCCNC(=O)C[C@H]1CC[C@]2(CC1)OO[C@]1(O2)C2CC3CC(C2)CC1C3 [OZ305] | 9.6 days | 96 | 9.2 days | – | – | – | – | – | –
O=C(c1ccncc1)N1CCC2(CC1)OOC1(O2)C2CC3CC(C2)CC1C3 (stereo not drawn) [OZ100, Adamantane-2-spiro-3′-8′-(4′-pyridinylcarbonyl)-1′,2′,4′-trioxa-8′-azaspiro[4.5]decane] | – | – | 6.3 days | 36 | 6.7 | 61 | 7.0 | 80 | –
NC(=O)c1cn(C[C@H]2CC[C@]3(CC2)OO[C@]2(O3)C3CC4CC(C3)CC2C4)cn1 [OZ320] | – | 92 | – | – | – | – | – | – | –
[O-][n+]1ccccc1SC[C@H]1CC[C@]2(CC1)OO[C@]1(O2)C2CC3CC(C2)CC1C3 [OZ328] | 7.6 days | 75 | 8.6 days | 99.77 | – | – | – | – | –
O=S(=O)(C[C@H]1CC[C@]2(CC1)OO[C@]1(O2)C2CC3CC(C2)CC1C3)c1cccc[n+]1[O-] [OZ324] | 7.4 days | 26 | 9.4 days | 60 | – | – | – | – | –
NC(=O)C1CCN(C(=O)C[C@H]2CC[C@]3(CC2)OO[C@]2(O3)C3CC4CC(C3)CC2C4)CC1 [OZ311] | 7.0 days | 40 | 8.6 days | 80 | – | – | – | – | –
CCNC(=O)NC[C@H]1CC[C@]2(CC1)OO[C@]1(O2)C2CC3CC(C2)CC1C3 [OZ291] | 6.8 days | 34 | 8.0 days | 98 | – | – | – | – | –
O=C(NC[C@H]1CC[C@]2(CC1)OOC1(O2)C2CC3CC(C2)CC1C3)c1ccccc1O (stereo partly drawn) [OZ280] | – | – | 5.7ND days | – | – | – | – | – | 0/ND %
